We go through 3 compounds from paper PMC2948605 (Clinical cancer research : an official journal of the …, 2010).

Series [1] has as its system dogs with spontaneous cancer.
Another series deals with treatment-naïve lymphoma. Conditions: DOX alone, treatment-naïve lymphoma in dogs; cited from earlier work.
Series [2] deals with canine and human osteosarcoma cells. Conditions: cited from earlier work.
Series [3] relates to acetylated histone H3 in PBMC. Kind of series: PBMC histone H3 acetylation by immunofluorescence. Format: in vivo, dog. Conditions: fourteen evaluable PBMC samples, data not shown.
Series [4] can be described thus: Serum trough VPA concentration. The series is classed as in vivo, dog. The conditions noted are these: 48 h after start of oral VPA, before fifth dose.
Another series concerns human patients. The conditions noted are these: cited from earlier work.
Series [5] has as its system WBC and neutrophil counts. Nature of the series: Complete blood counts for myelosuppression. The series is classed as in vivo, dog.
Series [6] in a line: Doxorubicin and doxorubicinol pharmacokinetics in plasma by LC/MS/MS. The series is classed as in vivo, dog. The conditions noted are these: three dogs, highest VPA cohort (240 mg/kg/day), IV DOX.

On to `COc1cccc2c1C(=O)c1c(O)c3c(c(O)c1C2=O)C[C@@](O)(C(=O)CO)C[C@@H]3O[C@H]1C[C@H](N)[C@H](O)[C@H](C)O1` [DOX, doxorubicin], for which the Cardiotoxicity result in series [1] (VPA pre-treated dogs, not directly evaluated, cumulative DOX dose < 150 mg/m^2) is reported as “did not observe any obvious cardiotoxicity”. The Reported remission rates with treatment-naïve lymphoma is recorded as 60-85%.

Regarding `CCCC(CCC)C(=O)O` [VPA, valproic acid], the “Grade 3 metabolic event (ALKP > 5× ULN)” value in series [1] (180/90 mg/kg cohort, patient with Stage 5 lymphoma) is listed as “single Grade 3 metabolic event”. In series [1] (210/105 mg/kg cohort), the “Grade 2 anorexia” value is reported as “single Grade 2 anorexia”. The Dose limiting toxicities result in series [1] (dogs at 240 mg/kg/day) is recorded as “no dose limiting toxicities”. Further, in series [1] (oral VPA, all dose-escalation cohorts), the Tolerability result is “well tolerated in all dose-escalation cohorts”. Moreover, in series [1] (oral VPA, cohorts up to 240/120 mg/kg loading/maintenance), the “Maximum tolerated dose (MTD)” value is on record as “No maximum tolerated dose (MTD) was reached”. Besides, the “VPA dose that can be administered prior to a standard dose of DOX” value in series [1] (oral divalproex for 48 h before DOX, tumor-bearing dogs) is “up to 240 mg/kg/day”. In addition, the “Effect of VPA pre-treatment on sensitivity to doxorubicin” value in series [2] (canine and human osteosarcoma cells) is “results in sensitization to doxorubicin”. Further, in series [2] (previous work), the “VPA level capable of chemosensitization in vitro” value is on record as 0.5 mM. In addition, the “Correlation of fold change in PBMC histone H3 acetylation with trough VPA levels” value in series [3] was “did not correlate”. Further, the “Trough serum VPA level reached” value in series [4] is “up to 0.5 mM”. The “MTD in human Phase I studies” value in the series with human patients is given as 140 mg/kg/day. Moreover, the “Myelosuppression induced by VPA” value in series [5] (doses up to 240 mg/kg/day, day 3 vs day 1 WBC and neutrophils) was “does not induce any significant myelosuppression”. The “Potentiation of DOX induced myelosuppression” value in series [5] (nadir WBC and neutrophil count day 7 post DOX vs VPA dose) was “no potentiation of DOX induced myelosuppression”.

Consider `COc1cccc2c1C(=O)c1c(O)c3c(c(O)c1C2=O)C[C@@](O)([C@@H](O)CO)C[C@@H]3O[C@H]1C[C@H](N)[C@H](O)[C@H](C)O1` [doxorubicinol], for which, in series [6], the “PK of the major metabolite versus historical controls receiving DOX alone” value is given as “no significant changes”.
